Test systems include LOX IMVI melanoma; MOLT-4 leukemia; SNB-75 CNS; NCI-H522 lung; MCF7 breast; M14 melanoma; SK-MEL-28 melanoma; OVCAR-4 ovarian.
Holding throughout (assay): NCI-60 cell line screen, 48 h

“And” between values parts separate entries of the source, which are not always exact repeats. Equal values may be shown once.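 Cells were grown in 96-well plates and exposed to each compound for 48 hours at five concentrations; endpoints were interpolated linearly between bracketing concentrations, or set to the highest concentration if not reached. At the GI50, growth is halved. TGI denotes the concentration required for complete inhibition of growth.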

Regarding `CCOC(=O)[C@@H]1CSC(CC)=C(C(=O)O)N1`, the GI50 in the assay on LOX IMVI melanoma, in the assay on MOLT-4 leukemia, in the assay with SNB-75 CNS, with NCI-H522 lung, with MCF7 breast and in the assay on M14 melanoma was above 100 µM throughout. Moreover, the GI50 in the assay on SK-MEL-28 melanoma and in the assay with OVCAR-4 ovarian was above 100 µM throughout. Also, the TGI with LOX IMVI melanoma, with MOLT-4 leukemia, in the assay with SNB-75 CNS, with NCI-H522 lung, with MCF7 breast and in the assay on M14 melanoma was above 100 µM each time. Also, the TGI in the assay with SK-MEL-28 melanoma and with OVCAR-4 ovarian was above 100 µM throughout.

Consider `CC1(C)C2CCC13C(=O)C1OC3(C2)C2C(=O)c3c(ccc4c3ccc3ccccc34)C(=O)C12` (configuration not stated), for which the GI50 in the assay on LOX IMVI melanoma was 50.9 µM; in the assay on MOLT-4 leukemia, 1.1 µM; with SNB-75 CNS, above 65.8 µM; in the assay with NCI-H522 lung, above 62.1 µM; in the assay with MCF7 breast, 31.6 µM; in the assay with M14 melanoma, above 100 µM. In addition, the GI50 with SK-MEL-28 melanoma is above 84.3 µM; in the assay on OVCAR-4 ovarian it was 56.1 µM. Besides, the TGI is above 100 µM in the assay on LOX IMVI melanoma; 10.6 µM in the assay on MOLT-4 leukemia; above 100 µM in the assay with SNB-75 CNS; above 100 µM in the assay on NCI-H522 lung; above 75.9 µM in the assay with MCF7 breast; above 100 µM in the assay with M14 melanoma. The TGI in the assay with SK-MEL-28 melanoma and with OVCAR-4 ovarian was above 100 µM throughout.

Take `CCOC1Oc2ccc(C)cc2C(=O)/C1=C\Nc1ccc(S(N)(=O)=O)cc1` (configuration not stated): the GI50 is 13.7 µM in the assay with LOX IMVI melanoma; 13.9 µM in the assay with MOLT-4 leukemia; 18.5 µM in the assay with SNB-75 CNS; above 50 µM in the assay on NCI-H522 lung; 15.9 µM in the assay on MCF7 breast; 9.32 µM with M14 melanoma. For the same molecule, the values for the GI50 in the assay on SK-MEL-28 melanoma and in the assay with OVCAR-4 ovarian were 14.5 µM and 15.2 µM, respectively. For the same molecule, the TGI was above 50 µM in the assay on LOX IMVI melanoma; above 50 µM in the assay with MOLT-4 leukemia; above 50 µM with SNB-75 CNS; above 50 µM with NCI-H522 lung; above 50 µM in the assay with MCF7 breast; 21.5 µM in the assay with M14 melanoma. Further, the TGI in the assay on SK-MEL-28 melanoma and in the assay on OVCAR-4 ovarian was above 50 µM in each case.

Regarding `Cn1c(=O)c2c(nc(N/N=C/c3ccccc3C(=O)O)n2C)n(C)c1=O`, the TGI with LOX IMVI melanoma, in the assay with MOLT-4 leukemia, in the assay on SNB-75 CNS, in the assay with NCI-H522 lung, with MCF7 breast and in the assay with M14 melanoma was above 100 µM throughout. The TGI in the assay on SK-MEL-28 melanoma and in the assay on OVCAR-4 ovarian was above 100 µM each time.

Take `CC1(C)N=C(N)N=C(N)N1c1cccc(CCc2ccccc2)c1`: the GI50 is 0.269 µM in the assay with LOX IMVI melanoma; 0.599 µM in the assay with MOLT-4 leukemia; 0.707 µM in the assay with SNB-75 CNS; 0.429 µM in the assay on NCI-H522 lung; 0.297 µM in the assay with MCF7 breast; 1.29 µM with M14 melanoma. Moreover, the GI50 was 1.04 µM in the assay on SK-MEL-28 melanoma and 0.528 µM in the assay with OVCAR-4 ovarian. The TGI in the assay on LOX IMVI melanoma was above 100 µM; in the assay on MOLT-4 leukemia, above 89.2 µM; with SNB-75 CNS it was 46.4 µM; in the assay with NCI-H522 lung it was 34.8 µM; in the assay with MCF7 breast, above 43 µM; in the assay on M14 melanoma it was above 100 µM. Besides, the TGI was above 68.9 µM in the assay on SK-MEL-28 melanoma and 79.5 µM with OVCAR-4 ovarian.

As to `CC(=O)OCC1OC(n2c3c(cc(C#N)c2=S)CCCC3)C(OC(C)=O)C(OC(C)=O)C1OC(C)=O` (configuration not stated), the GI50 was 20.7 µM and > 100 µM in the assay with LOX IMVI melanoma; 31.9 µM and > 100 µM in the assay with MOLT-4 leukemia; > 100 µM and 14.6 µM with SNB-75 CNS; 48.4 µM and > 100 µM in the assay on MCF7 breast. Besides, the TGI in the assay on LOX IMVI melanoma is 57.3 µM and > 100 µM; with MOLT-4 leukemia, above 100 µM; with SNB-75 CNS it was > 100 µM and 50.4 µM; in the assay on NCI-H522 lung it was > 100 µM and 98.7 µM; with MCF7 breast, above 100 µM; with M14 melanoma, above 100 µM. The TGI in the assay with SK-MEL-28 melanoma and in the assay with OVCAR-4 ovarian was above 100 µM in each case.

On to `Nc1ncc2ncn(C3CCC(CO)O3)c2n1` (configuration not stated), for which the TGI in the assay on LOX IMVI melanoma, in the assay on MOLT-4 leukemia, in the assay on SNB-75 CNS, with NCI-H522 lung, in the assay with MCF7 breast and in the assay on M14 melanoma was above 100 µM throughout. In addition, the TGI in the assay on SK-MEL-28 melanoma and in the assay with OVCAR-4 ovarian was above 100 µM throughout.

Consider `COc1cc2c3cc1Oc1c(OC)c(OC)cc4c1C(Cc1ccc(O)c(c1)Oc1ccc(cc1)CC3N(C)CC2)N(C)CC4` (configuration not stated), for which the GI50 in the assay with LOX IMVI melanoma is 3.68 µM; in the assay on MOLT-4 leukemia, 12.1 µM; in the assay on SNB-75 CNS, 11.3 µM; in the assay with NCI-H522 lung, 13.4 µM; in the assay with MCF7 breast it was 11.5 µM; in the assay on SK-MEL-28 melanoma it was 8.49 µM. Moreover, the GI50 with OVCAR-4 ovarian is 15.3 µM. Besides, the TGI was > 100 µM and 15.9 µM with LOX IMVI melanoma; > 100 µM and 54.9 µM in the assay on MOLT-4 leukemia; 52.7 µM and 24 µM in the assay with SNB-75 CNS; > 100 µM and 30.4 µM in the assay with NCI-H522 lung; > 100 µM and 66.8 µM with MCF7 breast; above 100 µM in the assay with M14 melanoma. The TGI was > 100 µM and 23.1 µM with SK-MEL-28 melanoma; > 100 µM and 50.7 µM in the assay on OVCAR-4 ovarian.

Turning to `CCc1ccc2c(c1)N(CCO)C1=C(C(=O)OC1)C2c1cc(OC)c(OC)c(OC)c1` (configuration not stated), the GI50 was 0.318 µM in the assay on LOX IMVI melanoma; 0.486 µM with MOLT-4 leukemia; 0.134 µM in the assay with SNB-75 CNS; 0.0837 µM with NCI-H522 lung; 0.209 µM in the assay on MCF7 breast; 0.275 µM with SK-MEL-28 melanoma. Moreover, in the assay with OVCAR-4 ovarian, the GI50 was 0.362 µM. The TGI is above 50 µM in the assay on LOX IMVI melanoma; above 50 µM in the assay on MOLT-4 leukemia; above 50 µM in the assay with SNB-75 CNS; 0.26 µM with NCI-H522 lung; above 50 µM with MCF7 breast; above 50 µM with SK-MEL-28 melanoma. This molecule also returned a TGI with OVCAR-4 ovarian above 50 µM.

As to `CC(=O)Oc1cc2cnc3c4cc(OC(C)=O)c(OC(C)=O)cc4ccc3c2cc1OC(C)=O`, the GI50 with LOX IMVI melanoma was 1.23 µM; in the assay with MOLT-4 leukemia it was 0.812 µM; with SNB-75 CNS, 0.25 µM; in the assay with NCI-H522 lung it was 0.392 µM; in the assay with MCF7 breast, 0.638 µM; with M14 melanoma, 1.78 µM. The GI50 with SK-MEL-28 melanoma was 3.15 µM; in the assay with OVCAR-4 ovarian, 1.35 µM. For the same molecule, the TGI in the assay on LOX IMVI melanoma was above 100 µM; in the assay with MOLT-4 leukemia, above 100 µM; with SNB-75 CNS, 7.7 µM; in the assay with NCI-H522 lung it was 4.56 µM; in the assay with MCF7 breast, above 100 µM; in the assay on M14 melanoma it was above 100 µM. Besides, the TGI with SK-MEL-28 melanoma and in the assay with OVCAR-4 ovarian was above 100 µM throughout.

For the origin of these results see PubChem BioAssay (NCI).
